Test results taken from patent publication US20250345321A1, “CATEQUENTINIB (ANLOTINIB) IN SEQUENTIAL COMBINATION WITH IMMUNOTHERAPY FOR USE IN THE TREATMENT OF CANCER” (ADVENCHEN PHARMACEUTICALS, LLC, priority 2019, published 2025).
Structures can show the parent of a compound that is named as a salt.

What was measured:
[1] = tested on: recurrent or advanced endometrial, ovarian, and cervical cancer; assay: Phase 1 efficacy of AL3818 with standard platinum-based chemotherapy (best response); type: in vivo, human; design: key to Best response: stable disease (SD); partial response (PR); complete response (CR)
Source text: Patients in this trial were females with recurrent or advanced endometrial, ovarian, and cervical cancer.
In this described study, all patients received at least one dose of AL3818 dihydrochloride orally. Aside of three patients were permanent discharged from this study due to severe adverse events (SAE), the other six patients' best response ranged from stable disease (SD) (⅙, 16.7%), partial response (PR) ( 4/6, 66.6%) to complete response (CR) (⅙, 16.7%).
1. The daily dosage of compound AL3818 was the initial dosage that administrated to the patients, which might subject to a dosage reduction if serious side-effects were observed.
2. The best response represented the most favorable outcome during the entire treatment, regardless of the possible disease progression (PD) after that.

[2] = AL3818 combination therapy with Nivolumab Phase I trial (DLT); type: in vivo, human; conditions: 10 mg oral Day 1-14 + Nivolumab 240 mg infusion Day 1 and Day 15 per 28 days; six sarcoma subjects
Source text: AL3818 and Nivolumab administrations are both started on Day 1.
Nivolumab is administrated via infusion on Day 1 and Day 15 for twice per 28 days, 21 days as one cycle will still be applied for the combination therapy. Nivolumab can be administrated via infusion on Day 1 once per 28 days, 21 days as one cycle will still be applied for the combination therapy. AL3818 is administrated orally from Day 1 to Day 14 and off from Day 15 to Day 21 for 21 days as one cycle. Nivolumab is administrated via infusion on Day 1 and Day 15 for twice per 28 days starting dose at 240 mg twice per 28 days. Nivolumab can be optionally administrated via infusion on Day 1 once per 28 days at 480 mg. AL3818 is administrated orally at Day 1-Day 14 at starting dose of 12 mg.
Treatments of subject 001 (liposarcoma), 002 (synovial sarcoma), 003 (angiosarcoma), 004 (leiomyosarcoma), 005 (undifferentiated pleomorphic sarcoma) and 006 (leiomyosarcoma) at 10 mg oral dosing Day 1-14 combing with Nivolumab at Day 1 and Day 15 for twice per 28 days starting dose at 240 mg infusion have been completed with one DLT (subject 002). Dose escalation to 12 mg combination therapies with Nivolumab with cervical cancer subject and other sarcoma subjects are ongoing.

VEGFR1 = VEGFR1 (Homo sapiens, UniProt P17948); conditions: cited from earlier work
VEGFR2/KDR = VEGFR2/KDR (Homo sapiens, UniProt P35968); conditions: cited from earlier work
VEGFR3 = VEGFR3 (Homo sapiens, UniProt P35916); conditions: cited from earlier work
FGFR1 = FGFR1 (Homo sapiens, UniProt P11362); conditions: cited from earlier work
FGFR2 = FGFR2 (Homo sapiens, UniProt P21802); conditions: cited from earlier work
FGFR3 = FGFR3 (Homo sapiens, UniProt P22607); conditions: cited from earlier work
PDGFR-a = PDGFR-a (Homo sapiens, UniProt P16234); conditions: cited from earlier work
c-KIT = c-KIT (Homo sapiens, UniProt P10721); conditions: cited from earlier work
tumor = conditions: mouse model, disclosed in earlier filing; cited from earlier work
[3] = Phase 1 chemo combination dosing de-escalation trial: safety, tolerability, DLT events
Source text: A Phase 1 trial was designed to determine the recommended phase 2 dose (RP2D) for part 2 (phase 2a) of the study.
In this presented chemo combination therapy regimen, in the first day of the 21-day cycle, standard platinum-based chemotherapeutic agents were administrated intravenously to the patients. […] 1-6 cycles of chemotherapy were applied for each individual patient.
After the intravenous (IV) chemotherapy on the Day 1, Day 2 to Day 7 was the therapy free period.
From Day 22 (C2D1) (CXDY is the abbreviation for Cycle X Day Y. For example, C2D1 represents Cycle 2 Day 1), a new cycle began, paclitaxel and carboplatin (or cisplatin for cervical cancer) were administrated to the patients and Day 23 to Day 28 (C2D2 • C2D7) was the therapy free period again.
The first 21-day cycle plus 7 days (C1D1-C2D8 or Day 1 to Day28) was crucial in this regimen and it was called the primary safety evaluation period. The recommended phase 2 dose (RP2D) was obtained by evaluating according to the standard for the dose limiting toxicity (DLT) events of patients in this period of time.
This evaluation period could be extended to the end of second cycle for the patients who passed the primary safety evaluation period.
In this embodiment, if any serious dose limiting toxicity (DLT) events or other serious side effects occurred, according to the serious level, the patients might require to withdraw the treatment, reduce the dose of medication or switch to other medications.

endometrial cancer = assay: Phase 2a efficacy of AL3818 with standard platinum-based chemotherapy, endometrial cancer patients; type: in vivo, human; design: key to Best response: stable disease (SD); partial response (PR); complete response (CR)
Procedure: (§1) Phase 1 was completed in Q1 2017 at one study site to determine the recommend phase 2 dose (RP2D). The RP2D was determined to be AL3818 dihydrochloride 8 mg orally once daily in 21-day cycles (14 days on treatment, 7 days off treatment) on Day 8 to Day 21 of the cycle with platinum-based chemotherapy on Day 1 of the cycle.
(§2) Phase 2a is currently ongoing at four study sites in the U.S. The first subject was enrolled in April 2017. As of December 2018, 48 subjects with recurrent or metastatic endometrial, ovarian, and cervical cancer have been enrolled. 24 subjects are still on treatment and 24 subjects have discontinued treatment. 21 endometrial cancer subjects have been enrolled, 9 subjects have discontinued treatment. 8 subjects discontinued due to disease progression, 1 subject discontinued due to toxicity. 12 subjects remain on treatment.
Combining Phase 1 and Phase 2a subjects, 24 subjects with endometrial cancer have been enrolled in study AL3818-US-002. 19 subjects have had evaluable responses as of December 2018. There were eight subjects enrolled in Phase 2a of the study as first-line treatment.

ovarian cancer = assay: Phase 2a efficacy of AL3818 with standard platinum-based chemotherapy, ovarian cancer patients; type: in vivo, human; design: key: stable disease (SD); partial response (PR); complete response (CR); conditions: single ovarian cancer subjects, 8 mg daily + chemotherapy, December 2018, PtR = platinum resistant
Procedure: as §1, §2

[4] = Phase 2a chemo combination trial: TEAEs and toxicity; type: in vivo, human
Procedure: as §1, §2

[5] = single subject, ovarian cancer, daily dosage 8 mg + standard paclitaxel and carboplatin
[6] = single subjects, endometrial cancer, daily dosage 8 mg + standard paclitaxel and carboplatin
[7] = single subjects, ovarian cancer, initial daily dosage 12 mg + standard platinum-based chemotherapy
[8] = 21 endometrial cancer subjects enrolled in Phase 2a, December 2018
[9] = endometrial cancer, second- and further-line treatment, eleven subjects

Sequence of VEGFR2/KDR (P35968 20-1356): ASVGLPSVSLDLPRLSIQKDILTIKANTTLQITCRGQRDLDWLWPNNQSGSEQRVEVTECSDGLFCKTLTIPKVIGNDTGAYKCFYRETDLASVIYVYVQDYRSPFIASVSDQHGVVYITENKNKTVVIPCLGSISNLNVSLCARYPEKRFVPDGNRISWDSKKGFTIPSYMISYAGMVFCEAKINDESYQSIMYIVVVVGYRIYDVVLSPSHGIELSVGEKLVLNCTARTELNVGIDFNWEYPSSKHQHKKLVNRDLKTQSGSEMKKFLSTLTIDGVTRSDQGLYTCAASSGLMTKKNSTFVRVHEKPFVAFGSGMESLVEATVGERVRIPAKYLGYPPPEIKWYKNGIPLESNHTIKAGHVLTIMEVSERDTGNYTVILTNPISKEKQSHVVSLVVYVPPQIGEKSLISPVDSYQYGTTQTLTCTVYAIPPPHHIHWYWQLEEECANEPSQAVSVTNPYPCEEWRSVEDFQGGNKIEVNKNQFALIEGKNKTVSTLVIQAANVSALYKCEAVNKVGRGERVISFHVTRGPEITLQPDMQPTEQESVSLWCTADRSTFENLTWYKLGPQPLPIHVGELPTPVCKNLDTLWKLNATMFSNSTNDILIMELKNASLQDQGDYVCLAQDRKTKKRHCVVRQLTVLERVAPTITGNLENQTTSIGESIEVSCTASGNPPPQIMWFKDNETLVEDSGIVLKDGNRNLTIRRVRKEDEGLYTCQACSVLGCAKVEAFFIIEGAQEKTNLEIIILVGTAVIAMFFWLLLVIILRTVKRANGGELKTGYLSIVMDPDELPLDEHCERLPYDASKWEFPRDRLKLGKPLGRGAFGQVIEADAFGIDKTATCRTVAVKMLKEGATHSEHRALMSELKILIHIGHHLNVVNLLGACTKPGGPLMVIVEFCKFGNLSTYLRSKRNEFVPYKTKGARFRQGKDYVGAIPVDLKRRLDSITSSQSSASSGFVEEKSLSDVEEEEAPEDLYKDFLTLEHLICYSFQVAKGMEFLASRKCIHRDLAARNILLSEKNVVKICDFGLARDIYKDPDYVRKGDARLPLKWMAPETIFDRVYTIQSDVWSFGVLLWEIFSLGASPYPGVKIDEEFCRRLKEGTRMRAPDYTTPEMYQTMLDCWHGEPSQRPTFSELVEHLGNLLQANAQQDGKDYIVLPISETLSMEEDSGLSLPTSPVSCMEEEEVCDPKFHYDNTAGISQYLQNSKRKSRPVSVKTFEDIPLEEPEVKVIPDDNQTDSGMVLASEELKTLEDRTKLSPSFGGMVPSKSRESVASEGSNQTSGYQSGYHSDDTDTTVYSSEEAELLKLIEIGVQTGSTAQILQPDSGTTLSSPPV
Sequence of FGFR2 (P21802 22-821): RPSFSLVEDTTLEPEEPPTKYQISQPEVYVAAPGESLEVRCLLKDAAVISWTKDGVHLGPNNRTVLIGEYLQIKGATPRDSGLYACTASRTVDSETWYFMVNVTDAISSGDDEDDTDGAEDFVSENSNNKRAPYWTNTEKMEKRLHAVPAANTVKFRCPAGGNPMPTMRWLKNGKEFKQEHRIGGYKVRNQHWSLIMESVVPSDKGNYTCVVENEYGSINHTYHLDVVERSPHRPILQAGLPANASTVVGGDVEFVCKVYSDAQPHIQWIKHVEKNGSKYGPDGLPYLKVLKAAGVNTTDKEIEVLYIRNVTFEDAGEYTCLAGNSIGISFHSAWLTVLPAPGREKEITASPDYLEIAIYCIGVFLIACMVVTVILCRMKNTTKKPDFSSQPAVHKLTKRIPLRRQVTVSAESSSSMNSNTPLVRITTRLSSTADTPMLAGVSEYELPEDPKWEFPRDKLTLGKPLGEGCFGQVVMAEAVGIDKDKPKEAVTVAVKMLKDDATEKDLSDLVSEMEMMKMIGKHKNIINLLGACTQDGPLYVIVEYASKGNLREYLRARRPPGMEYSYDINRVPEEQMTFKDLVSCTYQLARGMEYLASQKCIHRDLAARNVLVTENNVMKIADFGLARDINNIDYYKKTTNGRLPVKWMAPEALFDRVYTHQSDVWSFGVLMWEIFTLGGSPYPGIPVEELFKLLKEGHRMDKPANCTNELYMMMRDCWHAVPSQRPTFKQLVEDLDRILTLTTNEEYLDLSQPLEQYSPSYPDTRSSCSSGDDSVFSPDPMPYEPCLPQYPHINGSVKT
Sequence of VEGFR1 (P17948 27-1338): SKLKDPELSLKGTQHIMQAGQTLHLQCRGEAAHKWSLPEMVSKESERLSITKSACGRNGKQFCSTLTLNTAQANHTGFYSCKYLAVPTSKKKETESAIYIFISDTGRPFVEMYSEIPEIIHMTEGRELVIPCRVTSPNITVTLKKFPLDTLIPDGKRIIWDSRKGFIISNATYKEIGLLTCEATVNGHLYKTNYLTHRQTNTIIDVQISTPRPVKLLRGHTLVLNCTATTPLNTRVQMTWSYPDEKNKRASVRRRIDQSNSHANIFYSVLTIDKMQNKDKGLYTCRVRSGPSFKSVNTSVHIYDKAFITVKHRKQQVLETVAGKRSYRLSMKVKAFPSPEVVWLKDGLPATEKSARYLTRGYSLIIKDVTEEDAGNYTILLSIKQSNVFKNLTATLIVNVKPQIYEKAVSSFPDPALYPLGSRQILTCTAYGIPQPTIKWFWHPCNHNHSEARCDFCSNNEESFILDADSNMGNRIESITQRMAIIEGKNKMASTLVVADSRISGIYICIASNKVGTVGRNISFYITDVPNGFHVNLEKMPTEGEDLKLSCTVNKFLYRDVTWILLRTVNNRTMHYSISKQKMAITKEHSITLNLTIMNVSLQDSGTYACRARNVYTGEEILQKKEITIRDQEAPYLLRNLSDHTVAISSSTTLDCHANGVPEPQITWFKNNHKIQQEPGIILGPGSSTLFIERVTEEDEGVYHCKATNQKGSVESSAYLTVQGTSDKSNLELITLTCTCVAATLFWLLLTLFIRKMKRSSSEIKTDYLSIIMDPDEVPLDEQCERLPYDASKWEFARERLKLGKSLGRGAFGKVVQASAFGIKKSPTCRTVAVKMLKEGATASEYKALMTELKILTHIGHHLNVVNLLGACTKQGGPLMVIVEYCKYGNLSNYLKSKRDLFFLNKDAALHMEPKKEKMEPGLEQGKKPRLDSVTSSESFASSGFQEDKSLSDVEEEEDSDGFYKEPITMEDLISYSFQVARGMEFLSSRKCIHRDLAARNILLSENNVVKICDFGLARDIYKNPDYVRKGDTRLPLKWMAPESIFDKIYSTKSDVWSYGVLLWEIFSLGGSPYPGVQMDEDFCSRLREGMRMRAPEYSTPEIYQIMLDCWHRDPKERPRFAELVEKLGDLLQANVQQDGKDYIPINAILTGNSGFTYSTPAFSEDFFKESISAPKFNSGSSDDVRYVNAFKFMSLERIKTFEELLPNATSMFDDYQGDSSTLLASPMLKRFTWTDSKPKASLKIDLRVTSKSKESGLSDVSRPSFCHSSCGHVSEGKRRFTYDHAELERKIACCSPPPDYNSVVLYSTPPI
Sequence of FGFR1 (P11362 22-822): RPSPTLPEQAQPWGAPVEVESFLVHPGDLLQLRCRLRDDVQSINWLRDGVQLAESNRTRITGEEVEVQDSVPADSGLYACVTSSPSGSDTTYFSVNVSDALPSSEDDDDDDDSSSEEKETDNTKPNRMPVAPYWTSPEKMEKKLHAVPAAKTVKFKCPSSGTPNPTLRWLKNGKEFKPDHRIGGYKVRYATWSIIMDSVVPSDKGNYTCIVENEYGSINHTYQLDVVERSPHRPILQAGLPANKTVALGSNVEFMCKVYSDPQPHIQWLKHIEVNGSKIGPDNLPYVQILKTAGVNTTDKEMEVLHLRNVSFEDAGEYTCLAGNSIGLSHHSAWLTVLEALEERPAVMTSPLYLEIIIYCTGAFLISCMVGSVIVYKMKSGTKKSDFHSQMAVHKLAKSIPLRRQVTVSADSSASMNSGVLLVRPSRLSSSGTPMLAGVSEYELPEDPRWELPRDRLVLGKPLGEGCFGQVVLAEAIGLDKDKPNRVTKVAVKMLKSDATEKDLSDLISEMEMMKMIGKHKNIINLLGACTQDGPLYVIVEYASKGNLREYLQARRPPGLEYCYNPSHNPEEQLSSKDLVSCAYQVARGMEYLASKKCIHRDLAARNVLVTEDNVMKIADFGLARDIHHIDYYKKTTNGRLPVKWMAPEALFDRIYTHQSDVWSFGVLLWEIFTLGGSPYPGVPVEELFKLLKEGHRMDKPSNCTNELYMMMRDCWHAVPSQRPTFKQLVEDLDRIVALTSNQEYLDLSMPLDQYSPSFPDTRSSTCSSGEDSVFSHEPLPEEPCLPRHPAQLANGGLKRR
Sequence of FGFR3 (P22607 23-806): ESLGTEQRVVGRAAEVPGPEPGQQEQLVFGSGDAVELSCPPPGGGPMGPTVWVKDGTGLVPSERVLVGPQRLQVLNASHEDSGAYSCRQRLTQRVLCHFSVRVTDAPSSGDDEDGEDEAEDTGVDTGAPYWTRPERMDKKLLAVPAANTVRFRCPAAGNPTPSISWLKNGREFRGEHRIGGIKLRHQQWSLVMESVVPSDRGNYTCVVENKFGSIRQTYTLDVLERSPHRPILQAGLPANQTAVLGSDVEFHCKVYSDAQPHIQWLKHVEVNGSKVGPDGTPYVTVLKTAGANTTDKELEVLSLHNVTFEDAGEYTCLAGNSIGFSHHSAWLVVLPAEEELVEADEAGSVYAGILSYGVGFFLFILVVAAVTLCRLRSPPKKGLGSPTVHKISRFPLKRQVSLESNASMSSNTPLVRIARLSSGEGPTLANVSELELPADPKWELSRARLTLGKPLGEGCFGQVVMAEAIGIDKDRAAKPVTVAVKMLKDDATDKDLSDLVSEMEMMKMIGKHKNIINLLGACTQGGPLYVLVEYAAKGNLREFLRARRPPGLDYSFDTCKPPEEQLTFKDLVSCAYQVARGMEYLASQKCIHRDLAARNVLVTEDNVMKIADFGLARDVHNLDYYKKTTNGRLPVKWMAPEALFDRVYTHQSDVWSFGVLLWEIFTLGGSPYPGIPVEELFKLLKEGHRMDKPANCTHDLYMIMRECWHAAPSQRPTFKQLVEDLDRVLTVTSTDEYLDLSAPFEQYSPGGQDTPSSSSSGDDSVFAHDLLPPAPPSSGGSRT

COc1cc2c(Oc3ccc4[nH]c(C)cc4c3F)ccnc2cc1OCC1(N)CC1 [AL3818, (1-[[4-(4-fluoro-2-methyl-1H-indol-5-yloxy)-6-methoxyquinolin-7-yl]oxy]methyl]cyclopropaneamine]
Best response ([1]; single subject, cervical cancer, initial daily dosage 12 mg + standard platinum-based chemotherapy): NE/SAE
Best response ([1]; single subject, endometrial cancer, initial daily dosage 10 mg + standard platinum-based chemotherapy): PR
Best response [1, 5]: SD
Best response [1, 6]: PR
Best response ([1]; single subjects, ovarian cancer, initial daily dosage 10 mg + standard platinum-based chemotherapy): CR and NE/SAE
Best response [1, 7]: NE/SAE and PR
DLT [2]: one DLT
inhibition of VEGFR1 activity (VEGFR1): could inhibit
inhibition of VEGFR2/KDR activity (VEGFR2/KDR): could inhibit
inhibition of VEGFR3 activity (VEGFR3): could inhibit
inhibition of FGFR1 (FGFR1): strong inhibitor
inhibition of FGFR2 (FGFR2): strong inhibitor
inhibition of FGFR3 (FGFR3): strong inhibitor
inhibition of PDGFR-a (PDGFR-a): strong inhibitor
inhibition of c-KIT (c-KIT): strong inhibitor
anti-tumor effect of combination with chemotherapy agents (tumor): synergistic anti-tumor effects
dose limiting toxicity (DLT) events ([3]; 8 mg daily group, three patients, oral Day 8-21 of 21-day cycle + paclitaxel/carboplatin Day 1): no patient
tolerability of daily dosage of 12 mg ([3]; 12 mg daily together with platinum-based chemotherapy): too high
TEAE abdominal pain ([3]; Phase 1, nine subjects): 2.88%
TEAE alopecia ([3]; Phase 1, nine subjects): 2.91%
TEAE chest pain ([3]; Phase 1, nine subjects): 1.92%
TEAE dehydration ([3]; Phase 1, nine subjects): 1.92%
TEAE diarrhea ([3]; Phase 1, nine subjects): 4.81%
TEAE dizziness ([3]; Phase 1, nine subjects): 2.88%
TEAE fatigue ([3]; Phase 1, nine subjects): 4.81%
TEAE hypertension ([3]; Phase 1, nine subjects): 2.88%
TEAE nausea ([3]; Phase 1, nine subjects): 9.62%
TEAE pulmonary embolism ([3]; Phase 1, nine subjects): 1.92%
TEAE sore throat ([3]; Phase 1, nine subjects): 1.92%
TEAE thrombocytopenia ([3]; Phase 1, nine subjects): 1.94%
TEAE urinary tract infection ([3]; Phase 1, nine subjects): 2.88%
TEAE vomiting ([3]; Phase 1, nine subjects): 5.77%
TEAE weakness generalized ([3]; Phase 1, nine subjects): 2.88%
subjects reporting treatment emergent adverse events (TEAE) ([3]; Phase 1, nine subjects (9/9)): 100%

COc1cc2c(Oc3ccc4[nH]c(C)cc4c3F)ccnc2cc1OCC1(N)CC1 [AL3818 dihydrochloride]
share of patients with best response complete response (CR) ([1]; Phase 1, six evaluable patients (1/6)): 16.7%
share of patients with best response partial response (PR) ([1]; Phase 1, six evaluable patients (4/6)): 66.6%
Best response [1, 5]: SD
Best response [1, 6]: PR
Best response [1, 7]: PR
subjects discontinued due to disease progression (endometrial cancer; [8]): 8 subjects
partial responses (PR) as best responses (endometrial cancer; endometrial cancer, first-line treatment, eight subjects): five partial responses
Objective response rate (ORR) (endometrial cancer; endometrial cancer, first-line treatment, eight subjects Phase 2a (5/8)): 62.5%
disease control rate (DCR) (endometrial cancer; endometrial cancer, first-line treatment, eight subjects Phase 2a (6/8)): 75%
complete response (CR) as best responses (endometrial cancer; [9]): one complete response
partial responses (PR) as best responses (endometrial cancer; [9]): five partial responses
disease control rate (DCR) (endometrial cancer; endometrial cancer, second- and further-line treatment, eleven subjects (9/11)): 82%
Objective response rate (ORR) (endometrial cancer; endometrial cancer, second- and further-line treatment, eleven subjects Phase 1 and 2a (6/11)): 54.5%
Best response (endometrial cancer; single endometrial cancer subjects, Phase 2a, 8 mg daily + paclitaxel/carboplatin, December 2018): CR and PR and SD
Best Response (% reduction) (ovarian cancer): SD
subjects discontinued due to toxicity [4, 8]: 1 subject
TEAE abdominal pain ([4]; Phase 2a, % of all TEAEs): 4.20%
TEAE alopecia ([4]; Phase 2a, % of all TEAEs): 1.3%
TEAE anaemia ([4]; Phase 2a, % of all TEAEs): 1.8%
TEAE arthralgia ([4]; Phase 2a, % of all TEAEs): 1.6%
TEAE asthenia ([4]; Phase 2a, % of all TEAEs): 2.2%
TEAE back pain ([4]; Phase 2a, % of all TEAEs): 1.5%
TEAE constipation ([4]; Phase 2a, % of all TEAEs): 2.7%
TEAE decreased appetite ([4]; Phase 2a, % of all TEAEs): 2.7%
TEAE diarrhea ([4]; Phase 2a, % of all TEAEs): 6.3%
TEAE dyspnea ([4]; Phase 2a, % of all TEAEs): 1%
TEAE epistaxis ([4]; Phase 2a, % of all TEAEs): 3%
TEAE fatigue ([4]; Phase 2a, % of all TEAEs): 4.5%
TEAE flatulence ([4]; Phase 2a, % of all TEAEs): 1.5%
TEAE headache ([4]; Phase 2a, % of all TEAEs): 3.2%
TEAE hypertension ([4]; Phase 2a, % of all TEAEs): 3.3%
TEAE hypokalemia ([4]; Phase 2a, % of all TEAEs): 1.3%
TEAE hypomagnesaemia ([4]; Phase 2a, % of all TEAEs): 1%
TEAE insomnia ([4]; Phase 2a, % of all TEAEs): 1.3%
TEAE nausea ([4]; Phase 2a, % of all TEAEs): 4.7%
TEAE neuropathy peripheral ([4]; Phase 2a, % of all TEAEs): 2%
TEAE neutropenia ([4]; Phase 2a, % of all TEAEs): 2%
TEAE neutrophil count decreased ([4]; Phase 2a, % of all TEAEs): 1%
TEAE pain in extremity ([4]; Phase 2a, % of all TEAEs): 1.7%
TEAE pyrexia ([4]; Phase 2a, % of all TEAEs): 1.2%
TEAE thrombocytopenia ([4]; Phase 2a, % of all TEAEs): 1.7%
TEAE urinary tract infection ([4]; Phase 2a, % of all TEAEs): 1.3%
TEAE vomiting ([4]; Phase 2a, % of all TEAEs): 2.8%
TEAE weight decreased ([4]; Phase 2a, % of all TEAEs): 1%
dose limiting toxicity (DLT) events ([3]; 10 mg daily group, three patients, oral Day 8-21 of 21-day cycle + paclitaxel/carboplatin Day 1): one of the patients
dose limiting toxicity (DLT) events during the primary safety evaluation period ([3]; 12 mg daily group, three patients, oral Day 8-21 of 21-day cycle + paclitaxel/carboplatin Day 1): two of the patients out of three
safe daily dosage ([3]; 21-day cycle (14 days on, 7 off) combined with paclitaxel and carboplatin (or cisplatin)): 8 mg
recommended phase 2 dose (RP2D) ([3]; oral once daily Day 8-21 of 21-day cycle with platinum-based chemotherapy Day 1): 8 mg
